How the values were obtained:
Type in all cases: in vivo, rice
[1] = system: seeds of GAT key strains and ZH11; test: Tissue culture germination screening on bispyribac-sodium (BS) medium; conditions: 1/2MS + 3 μm bispyribac-sodium
Description: In order to identify the working efficiency of screening marker elements in the GAT T1 generation, tissue culture germination was used to screen the T1 generation of key strains and candidate strains.
Therefore, ½MS medium+3 μm bispyribac-sodium was prepared for screening the key strains and the candidate strains of GAT, and the germination results were shown in Table 2.

[2] = system: GAT T0 generation transformants and wild-type control ZH11 seedlings; test: Bispyribac-sodium resistance phenotype, spraying of T0 seedlings
Description: In order to test the working efficiency of screening marker elements in the GAT system, a 600 mg/L bispyribac-sodium solution was prepared with 10% bispyribac-sodium (Nominee, Japan), and 563 GATT0 generation obtained in example 2 and wild-type control ZH11 3 to 5 leaf stage seedlings were sprayed. After spraying, continuous observation was carried out.

[3] = system: seeds of GAT strains, hybrids with sterile line 1907, ZH11, 9311, MH63; test: Detection of the escape rate of GAT pollen: seed screening on BS medium; conditions: 21 days; for Survival number / Survival rate: 1/2MS + 3uM BS
Excerpt: To further detect whether its pollen escapes, in this example, the rice material of common sterile line was pollinated through the strains of the excellent initial maintainer line of GAT, and it was checked whether the hybrid seed has the resistance to bispyribac-sodium (the method is the same as that in Example 5). […] GAT strains (23-2, 88-4) were selected as male parents to pollinate female sterile line 1907, and 221 and 373 hybrid seeds were obtained respectively.

[4] = 563 GAT T0 transformants, 600 mg/L spray, 14th day
[5] = hybrid 1907 × 23-2(T1), total number 211
[6] = hybrid 1907×88-4(T1), total number 363
[7] = strain 23-2(T2), total number 200
[8] = strain 88-4(T2), total number 200

COc1cc(OC)nc(Oc2cccc(Oc3nc(OC)cc(OC)n3)c2C(=O)O)n1 [bispyribac-sodium]
Germination ([1]; strain 4, 45 seeds): 24 | Non-germination ([1]; strain 4, 45 seeds): 21 | Germination ([1]; strain 7, 29 seeds): 11 | Non-germination ([1]; strain 7, 29 seeds): 18 | Germination ([1]; strain 11-1, 58 seeds): 26 | Non-germination ([1]; strain 11-1, 58 seeds): 32 | Germination ([1]; strain 20, 40 seeds): 10 | Non-germination ([1]; strain 20, 40 seeds): 30 | Germination ([1]; strain 23-2, 30 seeds): 19 | Non-germination ([1]; strain 23-2, 30 seeds): 11 | Germination ([1]; strain 23, 110 seeds): 61 | Non-germination ([1]; strain 23, 110 seeds): 49 | Germination ([1]; strain 28, 59 seeds): 16 | Non-germination ([1]; strain 28, 59 seeds): 43 | Germination ([1]; strain 53-3, 19 seeds): 7 | Non-germination ([1]; strain 53-3, 19 seeds): 12 | Germination ([1]; strain 77-2, 46 seeds): 29 | Non-germination ([1]; strain 77-2, 46 seeds): 17 | Germination ([1]; strain 88-4, 62 seeds): 30 | Non-germination ([1]; strain 88-4, 62 seeds): 32 | Germination ([1]; strain 93-2, 34 seeds): 15 | Non-germination ([1]; strain 93-2, 34 seeds): 19 | Germination ([1]; strain 95-2, 35 seeds): 10 | Non-germination ([1]; strain 95-2, 35 seeds): 25 | Germination ([1]; strain 174-3, 15.2 seeds): 12 | Non-germination ([1]; strain 174-3, 15.2 seeds): 3.2 | Germination ([1]; strain 175-4): 14 | Non-germination ([1]; strain 175-4, 27.3 seeds): 13.3 | Germination ([1]; strain ZH11 (CK), 40 seeds): 0 | Non-germination ([1]; strain ZH11 (CK), 40 seeds): 40 | number of growth inhibited strains (mediumly resistant) [2, 4]: 163 strains | number of irreversible death or near-death strains (non-resistant or low resistant) [2, 4]: 216 strains | number of normal growth strains (highly resistant) [2, 4]: 184 strains | probability of GAT transformants showing normal growth, highly resistant ([2]; GAT T0 transformants, 600 mg/L spray): 32.68% | appearance of leaves after spraying ([2]; control ZH11, 600 mg/L bispyribac-sodium spray, 3 to 5 leaf stage, third day): withered and yellow | appearance after spraying ([2]; control ZH11, 600 mg/L bispyribac-sodium spray, 14th day): completely died | appearance after spraying ([2]; control ZH11, 600 mg/L bispyribac-sodium spray, seventh day): withered and yellow and was dying | Survival number [3, 5]: 0 | Survival rate [3, 5]: 0.00% | Survival number [3, 6]: 0 | Survival rate [3, 6]: 0.00% | germination rate ([3]; hybrid seeds 1907 x GAT strains 23-2, 88-4, 1/2MS+3 uM BS): 0% | Survival number [3, 7]: 95 | Survival rate [3, 7]: 47.50% | Survival number [3, 8]: 83 | Survival rate [3, 8]: 41.50% | Survival number ([3]; strain 9311, total number 200): 0 | Survival rate ([3]; strain 9311, total number 200): 0.00% | Survival number ([3]; strain MH63, total number 200): 0 | Survival rate ([3]; strain MH63, total number 200): 0.00% | Survival number ([3]; strain ZH11, total number 200): 0 | Survival rate ([3]; strain ZH11, total number 200): 0.00%
